# Experimental data as given in patent US9163018B2, “Method of treatment of age-related macular degeneration (AMD)” (Prana Biotechnology Limited, priority 2006, dated 2015).
# Experiments:
# [1] = test system: dityrosine oligomerization; experiment: CuTy: inhibition of dityrosine oligomerization; format: biochemical; settings: referenced to in-house standard (set as 100% inhibition)
# [2] = test system: Abeta in extract of post-mortem human AD brain tissue; experiment: BAS: human brain amyloid solubilization assay; format: biochemical; settings: max effect across the concentration range, referenced to baseline PBS
# Procedure, shortened: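 Plaque-bearing post-mortem AD cortex homogenised in ice-cold PBS pH 7.4; soluble Aβ in 100,000×g supernatant, insoluble Aβ from resuspended pellet. Fractions run on Tris-Tricine SDS-PAGE, immunoblotted with W02, densitometry against synthetic Aβ40 standards.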
smiles,measurement,setting,value
CN(C)Cc1ccc2c(Cl)cc(Cl)c(O)c2n1.Cl [PB 1033],CuTy % inhibition of dityrosine oligomerization,[1],100%
same,BAS max effect,[2],470%
